Legend:
Assay in all cases: relative viability (nuclei count vs DMSO), 5 days (fraction); higher = more cells survive
A-427 = test system: A-427
In short: (§1)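 Relative viability is defined as nuclei in treated wells over nuclei in vehicle wells. Duplicate plates were run and medians reported. Lung cancer cell lines in 1536-well plates were dosed by pin tool one day after seeding, with one drug or with a fixed anchor-drug dose plus five library-drug doses (not always all listed) in √10 steps, and nuclei were counted after 5 days.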

COR-L 105 = test system: COR-L 105
In short: as §1

EPLC-272H = test system: EPLC-272H
In short: as §1

HCC-366 = test system: HCC-366
In short: as §1

HCC-78 = test system: HCC-78
In short: as §1

HOP-62 = test system: HOP-62
In short: as §1

LC-2-ad = test system: LC-2-ad
In short: as §1

LU99A = test system: LU99A
In short: as §1

LXF-289 = test system: LXF-289
In short: as §1

NCI-H1666 = test system: NCI-H1666
In short: as §1

NCI-H1793 = test system: NCI-H1793
In short: as §1

NCI-H1915 = test system: NCI-H1915
In short: as §1

NCI-H1944 = test system: NCI-H1944
In short: as §1

NCI-H2009 = test system: NCI-H2009
In short: as §1

NCI-H2085 = test system: NCI-H2085
In short: as §1

NCI-H2170 = test system: NCI-H2170
In short: as §1

NCI-H358 = test system: NCI-H358
In short: as §1

NCI-H460 = test system: NCI-H460
In short: as §1

SK-LU-1 = test system: SK-LU-1
In short: as §1

SW 900 = test system: SW 900
In short: as §1

UMC-11 = test system: UMC-11
In short: as §1

Compound O=c1cc(N2CCOCC2)oc2c(-c3cccc4c3sc3ccccc34)cccc12 + COc1cc2c(Oc3ccc(NC(=O)C4(C(=O)Nc5ccc(F)cc5)CC4)cc3F)ccnc2cc1OCCCN1CCOCC1 [Foretinib] (partner 0.25 µM) has a relative viability (A-427; first compound 0.01 µM) of 1.04, a relative viability (A-427; first compound 0.03162 µM) of 1.2 and a relative viability (A-427; first compound 0.1 µM) of 0.972. It also gave a relative viability (A-427; first compound 0.3162 µM) of 1.01, a relative viability (A-427; first compound 1 µM) of 1 and a relative viability (COR-L 105; first compound 0.01 µM) of 0.986. For the same compound, the relative viability (COR-L 105; first compound 0.03162 µM) was 1.1, the relative viability (COR-L 105; first compound 0.1 µM) was 0.681 and the relative viability (COR-L 105; first compound 0.3162 µM) was 1.04. The relative viability (COR-L 105; first compound 1 µM) was 1.21, the relative viability (EPLC-272H; first compound 0.01 µM) was 0.607 and the relative viability (EPLC-272H; first compound 0.03162 µM) was 0.667. It also gave a relative viability (EPLC-272H; first compound 0.3162 µM) of 0.734, a relative viability (EPLC-272H; first compound 1 µM) of 0.688 and a relative viability (HCC-366; first compound 0.01 µM) of 0.941. It also gave a relative viability (HCC-366; first compound 0.03162 µM) of 0.918, a relative viability (HCC-366; first compound 0.1 µM) of 0.99 and a relative viability (HCC-366; first compound 0.3162 µM) of 0.961. The relative viability (HCC-366; first compound 1 µM) was 0.853, the relative viability (HCC-78; first compound 0.01 µM) was 0.492 and the relative viability (HCC-78; first compound 0.03162 µM) was 0.457. For the same compound, the relative viability (HCC-78; first compound 0.1 µM) was 0.544, the relative viability (HCC-78; first compound 0.3162 µM) was 0.581 and the relative viability (HCC-78; first compound 1 µM) was 0.533. For the same compound, the relative viability (HOP-62; first compound 0.01 µM) was 1.1, the relative viability (HOP-62; first compound 0.03162 µM) was 1.17 and the relative viability (HOP-62; first compound 0.1 µM) was 1.11. The relative viability (HOP-62; first compound 0.3162 µM) was 1.14, the relative viability (HOP-62; first compound 1 µM) was 1.16 and the relative viability (LC-2-ad; first compound 0.01 µM) was 0.89. For the same compound, the relative viability (LC-2-ad; first compound 0.03162 µM) was 1.03, the relative viability (LC-2-ad; first compound 0.1 µM) was 0.921 and the relative viability (LC-2-ad; first compound 0.3162 µM) was 0.877. For the same compound, the relative viability (LC-2-ad; first compound 1 µM) was 0.795, the relative viability (LU99A; first compound 0.01 µM) was 0.937 and the relative viability (LU99A; first compound 0.03162 µM) was 0.739. For the same compound, the relative viability (LU99A; first compound 0.1 µM) was 0.908, the relative viability (LU99A; first compound 0.3162 µM) was 0.806 and the relative viability (LU99A; first compound 1 µM) was 0.777. For the same compound, the relative viability (LXF-289; first compound 0.01 µM) was 0.969, the relative viability (LXF-289; first compound 0.03162 µM) was 0.984 and the relative viability (LXF-289; first compound 0.1 µM) was 1. The relative viability (LXF-289; first compound 0.3162 µM) was 0.97, the relative viability (LXF-289; first compound 1 µM) was 0.965 and the relative viability (NCI-H1666; first compound 0.01 µM) was 0.907. The relative viability (NCI-H1666; first compound 0.03162 µM) was 0.917, the relative viability (NCI-H1666; first compound 0.1 µM) was 0.983 and the relative viability (NCI-H1666; first compound 0.3162 µM) was 0.883. It also gave a relative viability (NCI-H1666; first compound 1 µM) of 0.913, a relative viability (NCI-H1793; first compound 0.01 µM) of 0.594 and a relative viability (NCI-H1793; first compound 0.1 µM) of 0.568. It also gave a relative viability (NCI-H1793; first compound 0.3162 µM) of 0.685, a relative viability (NCI-H1793; first compound 1 µM) of 0.486 and a relative viability (NCI-H1915; first compound 0.01 µM) of 1.12. It also gave a relative viability (NCI-H1915; first compound 0.03162 µM) of 1.1, a relative viability (NCI-H1915; first compound 0.1 µM) of 1.16 and a relative viability (NCI-H1915; first compound 0.3162 µM) of 1.11. The relative viability (NCI-H1915; first compound 1 µM) was 1.06, the relative viability (NCI-H1944; first compound 0.01 µM) was 0.876 and the relative viability (NCI-H1944; first compound 0.03162 µM) was 0.928. It also gave a relative viability (NCI-H1944; first compound 0.1 µM) of 0.829, a relative viability (NCI-H1944; first compound 0.3162 µM) of 0.89 and a relative viability (NCI-H1944; first compound 1 µM) of 0.821. For the same compound, the relative viability (NCI-H2009; first compound 0.01 µM) was 1.19, the relative viability (NCI-H2009; first compound 0.03162 µM) was 1.21 and the relative viability (NCI-H2009; first compound 0.1 µM) was 1.23. For the same compound, the relative viability (NCI-H2009; first compound 0.3162 µM) was 1.22, the relative viability (NCI-H2009; first compound 1 µM) was 1.11 and the relative viability (NCI-H2085; first compound 0.01 µM) was 0.96. It also gave a relative viability (NCI-H2085; first compound 0.03162 µM) of 0.941, a relative viability (NCI-H2085; first compound 0.1 µM) of 0.961 and a relative viability (NCI-H2085; first compound 0.3162 µM) of 0.912. For the same compound, the relative viability (NCI-H2085; first compound 1 µM) was 0.944, the relative viability (NCI-H2170; first compound 0.01 µM) was 0.968 and the relative viability (NCI-H2170; first compound 0.03162 µM) was 0.542. The relative viability (NCI-H2170; first compound 0.1 µM) was 1.03, the relative viability (NCI-H2170; first compound 0.3162 µM) was 0.935 and the relative viability (NCI-H2170; first compound 1 µM) was 0.942. The relative viability (NCI-H358; first compound 0.01 µM) was 0.647, the relative viability (NCI-H358; first compound 0.03162 µM) was 0.7 and the relative viability (NCI-H358; first compound 0.1 µM) was 0.667. The relative viability (NCI-H358; first compound 0.3162 µM) was 0.741, the relative viability (NCI-H358; first compound 1 µM) was 0.774 and the relative viability (NCI-H460; first compound 0.01 µM) was 0.981. The relative viability (NCI-H460; first compound 0.03162 µM) was 1.03, the relative viability (NCI-H460; first compound 0.1 µM) was 0.987 and the relative viability (NCI-H460; first compound 0.3162 µM) was 0.985. The relative viability (NCI-H460; first compound 1 µM) was 1.04, the relative viability (SK-LU-1; first compound 0.01 µM) was 0.893 and the relative viability (SK-LU-1; first compound 0.03162 µM) was 0.918. It also gave a relative viability (SK-LU-1; first compound 0.1 µM) of 0.789, a relative viability (SK-LU-1; first compound 0.3162 µM) of 0.834 and a relative viability (SK-LU-1; first compound 1 µM) of 0.768. For the same compound, the relative viability (SW 900; first compound 0.01 µM) was 0.859, the relative viability (SW 900; first compound 0.03162 µM) was 0.888 and the relative viability (SW 900; first compound 0.1 µM) was 0.789. It also gave a relative viability (SW 900; first compound 0.3162 µM) of 0.798, a relative viability (SW 900; first compound 1 µM) of 0.818 and a relative viability (UMC-11; first compound 0.01 µM) of 1. It also gave a relative viability (UMC-11; first compound 0.03162 µM) of 1.08, a relative viability (UMC-11; first compound 0.1 µM) of 1.03 and a relative viability (UMC-11; first compound 0.3162 µM) of 1.01. For the same compound, the relative viability (UMC-11; first compound 1 µM) was 0.91.
